Our source for the IC50 values is US9340554B2, “IRAK inhibitors and uses thereof” (Nimbus Iris, Inc., priority 2011, dated 2016).

Read-outs that look alike come from different tables or passages of the source.

The experiment addresses T1, IRAK4 (Homo sapiens, UniProt Q9NWZ3).
T1 construct: purchased CARNA Bioscience 09-145
T1 sequence (Q9NWZ3 1-460): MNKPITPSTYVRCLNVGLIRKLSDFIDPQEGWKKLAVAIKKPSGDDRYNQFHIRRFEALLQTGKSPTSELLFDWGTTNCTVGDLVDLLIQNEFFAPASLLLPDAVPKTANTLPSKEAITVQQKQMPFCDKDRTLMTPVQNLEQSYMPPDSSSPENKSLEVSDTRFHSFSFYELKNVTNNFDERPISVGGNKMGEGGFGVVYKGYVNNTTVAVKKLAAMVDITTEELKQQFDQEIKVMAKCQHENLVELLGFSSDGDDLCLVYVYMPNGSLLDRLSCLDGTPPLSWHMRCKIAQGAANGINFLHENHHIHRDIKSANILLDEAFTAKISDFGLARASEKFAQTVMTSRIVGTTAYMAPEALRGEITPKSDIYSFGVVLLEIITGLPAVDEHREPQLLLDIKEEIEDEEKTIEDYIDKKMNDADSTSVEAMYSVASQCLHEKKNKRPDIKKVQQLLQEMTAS
Put plainly: IRAK-4 activity inhibition assay (Caliper, Peptide 8, 37 μM ATP). Type of experiment: biochemical. As to conditions: 28° C. 40 minutes. The method, then:
A 1× kinase base buffer was prepared from 50 mM HEPES, pH 7.5 and 0.0015% Brij-35. A stop buffer was prepared from 100 mM HEPES, pH 7.5, 0.015% Brij-35, 0.2% Coating Reagent #3, and 50 mM EDTA.
Test compound was diluted to 50× of the final desired highest inhibitor concentration in reaction by 100% DMSO. 100 ul of this compound dilution was transferred to a well in a 96-well plate.
Test compound was serially diluted by transferring 30 μl to 60 μl of 100% DMSO in the next well and so forth for a total of 10 concentrations. 100 μl of 100% DMSO was added to two empty wells for no compound control and no enzyme control in the same 96-well plate.
A new 96-well plate was marked as intermediate plate. 5 μl of compound serial dilution was transferred from source plate to the corresponding wells of the intermediate plate. 45 μl of 1× kinase base buffer (KB buffer) was added to each well of the intermediate plate. The intermediate plate was placed for 10 min on a shaker.
5 μl of each well was transferred from the 96-well intermediate plate to a 384-well plate in duplicates. […] A2 of the 96-well plate is transferred to A3 and A4 of the 384-well plate, and so on.
IRAK4 and DTT in 1× kinase base buffer was added.
Assay plate already contained 5 μl of compound in 10% DMSO. Added 10 μl of 2.5× enzyme solution to each well of the 384-well assay plate, except no enzyme control wells. […] Added 10 μl of 1× kinase base buffer to no enzyme control wells in the assay plate. Incubated at room temperature for 10 min.
Added 10 μl of 2.5× peptide solution to each well of the 384-well assay plate. […] Incubated at 28° C. for 40 minutes. Added 25 μl of stop buffer to stop reaction. Collected data on Caliper.
Copied conversion % data from Caliper program. Converted conversion % values to percent inhibition values. Percent inhibition=(max−conversion %)/(max−min)*100, where “max” means the conversion % of DMSO control and “min” means the conversion % of no enzyme control.
The compound numbers correspond to the compound numbers in Table 1. […] “NA” stands for “not assayed.”

The mark [1] stands for this setting: 3.5 nM IRAK4, 1.5 μM Peptide 8, 37 μM ATP, read-out: IRAK-4 activity inhibition IC50.

In the case of `O[C@@H]1CCC[C@H](Nc2ncnc3sc4c(c23)CCC4)C1` (relative stereo) [Compound I-21, cis-3-((6,7-dihydro-5H-cyclopenta[4,5]thieno[2,3-d]pyrimidin-4-yl)amino)cyclohexanol], the IC50 under setting [1] lay within 5 to 20 µM.
Same read-out and setting: under `N[C@H]1CC[C@H](Oc2ncnc3sc4c(c23)CCC4)CC1` [Compound I-61, trans-4-((6,7-dihydro-5H-cyclopenta[4,5]thieno[2,3-d]pyrimidin-4-yl)oxy)cyclohexanamine] stands < 5 µM.
In the case of `NC1CCN(c2ncnc3sc4c(c23)CCC4)CC1` [Compound I-9], the IC50 under setting [1] lay within 20 to 50 µM.
As to `CCC1CCc2c(sc3ncnc(N[C@H]4CC[C@H](NC)CC4)c23)C1` (stereo partly drawn) [Compound I-58, trans-N1-(7-ethyl-5,6,7,8-tetrahydrobenzo[4,5]thieno[2,3-d]pyrimidin-4-yl)-N4-methylcyclohexane-1,4-diamine], the IC50 under setting [1] is < 5 µM.
On to `CN(C)[C@H]1CC[C@H](N(C)c2ncnc3sc4c(c23)CCC4)CC1` [Compound I-144, (1r,4r)-N1-(6,7-dihydro-5H-cyclopenta[4,5]thieno[2,3-d]pyrimidin-4-yl)-N1,N4,N4-trimethylcyclohexane-1,4-diamine], for which the IC50 under setting [1] is < 5 µM.
`CN(C)[C@H]1CC[C@H](Oc2ncnc3sc4c(c23)CCC4)CC1` [Compound I-67, trans-4-((6,7-dihydro-5H-cyclopenta[4,5]thieno[2,3-d]pyrimidin-4-yl)oxy)-N,N-dimethylcyclohexanamine]: under setting [1], the IC50 is < 5 µM.
Consider `CCN(Cc1ccccc1)[C@H]1CC[C@H](Nc2ncnc3sc4c(c23)CCC4)CC1` [Compound I-120, 1-N-benzyl-1-N-ethyl-4-N-[7-thia-9,11-diazatricyclo[6.4.0.0[2,6]]dodeca-1(8),2(6),9,11-tetraen-12-yl]cyclohexane-1,4-diamine], for which the IC50 under setting [1] is < 5 µM.
As for `CN(Cc1ccc(C(N)=O)cc1)[C@H]1CC[C@H](Nc2ncnc3sc4c(c23)CCC4)CC1` [Compound I-164, 4-([methyl[4-([7-thia-9,11-diazatricyclo[6.4.0.0^[2,6]]dodeca-1(8),2(6),9,11-tetraen-12-yl]amino)cyclohexyl]amino]methyl)benzamide], under setting [1], the IC50 was < 5 µM.
As for `CCC1CCc2c(sc3ncnc(N4CCC(C(=O)NO)CC4)c23)C1` (centres unmarked) [Compound I-14], the IC50 under setting [1] is < 5 µM.
For `COc1ccc(OCCN2CCN(c3ncnc4sc5c(c34)CCCC5)CC2)cc1` [Compound I-27], under setting [1], the IC50 fell in the range of 5 to 20 µM.
Same read-out and setting: in the case of `CCN[C@H]1CC[C@H](Nc2ncnc3sc4c(c23)CCC4)CC1` [Compound I-71, trans-N^1-(6,7-dihydro-5H-cyclopenta[4,5]thieno[2,3-d]pyrimidin-4-yl)-N^4-ethylcyclohexane-1,4-diamine] it was < 5 µM.
As for `C[N+](C)(C)[C@H]1CC[C@H](Nc2ncnc3sc4c(c23)CCC4)CC1` [Compound I-139, (1r,4r)-4-((6,7-dihydro-5H-cyclopenta[4,5]thieno[2,3-d]pyrimidin-4-yl)amino)-N,N,N-trimethylcyclohexanaminium iodide], the IC50 (IRAK-4 activity inhibition IC50, 3.5 nM IRAK4, 1.5 μM Peptide 8, 37 μM ATP) is 20 to 50 µM.
For `NC(=O)C1CCN(c2ncnc3sc4c(c23)CCCC4)CC1` [Compound I-1], the IC50 under setting [1] lay within 5 to 20 µM.
As to `CC(C)N[C@H]1CC[C@H](Nc2ncnc3sc4c(c23)CCC4)CC1` [Compound I-157, 1-N-(propan-2-yl)-4-N-[7-thia-9,11-diazatricyclo[6.4.0.0^[2,6]]dodeca-1(8),2(6),9,11-tetraen-12-yl]cyclohexane-1,4-diamine], the IC50 under setting [1] was < 5 µM.
For `CN(Cc1c[nH]c2ccccc12)[C@H]1CC[C@H](Nc2ncnc3sc4c(c23)CCC4)CC1` [Compound I-110], the IC50 under setting [1] was < 5 µM.
Turning to `c1nc(N[C@H]2CC[C@H](N3CCCC3)CC2)c2c3c(sc2n1)CCC3` [Compound I-142, N-((1r,4r)-4-(pyrrolidin-1-yl)cyclohexyl)-6,7-dihydro-5H-cyclopenta[4,5]thieno[2,3-d]pyrimidin-4-amine], under setting [1], the IC50 was < 5 µM.
Take `N[C@H]1CC[C@H](Nc2ncnc3sc4c(c23)CCCC4)CC1` [Compound I-49, trans-N^1-(5,6,7,8-tetrahydrobenzo[4,5]thieno[2,3-d]pyrimidin-4-yl)cyclohexane-1,4-diamine]: the IC50 under setting [1] was < 5 µM.
Turning to `CC1CCc2c(sc3ncnc(N4CCC(C(N)=O)CC4)c23)C1` (centres unmarked) [Compound I-3], under setting [1], the IC50 fell in the range of 5 to 20 µM.
As for `CN(C(=O)Cc1ccccn1)[C@H]1CC[C@H](Nc2ncnc3sc4c(c23)CCC4)CC1` [Compound I-103, N-methyl-2-(pyridin-2-yl)-N-[4-([7-thia-9,11-diazatricyclo[6.4.0.0^[2,6]]dodeca-1(8),2(6),9,11-tetraen-12-yl]amino)cyclohexyl]acetamide], the IC50 under setting [1] was in the range of 20 to 50 µM.
On the same count and under the same terms, in the case of `CN(CCc1cccc(Cl)c1)[C@H]1CC[C@H](Nc2ncnc3sc4c(c23)CCC4)CC1` [Compound I-107, 1-N-[2-(3-chlorophenyl)ethyl]-1-N-methyl-4-N-[7-thia-9,11-diazatricyclo[6.4.0.0^[2,6]]dodeca-1(8),2(6),9,11-tetraen-12-yl]cyclohexane-1,4-diamine] it was < 5 µM.
For the molecule `CN(CC(=O)Nc1cccnc1)[C@H]1CC[C@H](Nc2ncnc3sc4c(c23)CCC4)CC1` [Compound I-126, 2-(((1r,4r)-4-((6,7-dihydro-5H-cyclopenta[4,5]thieno[2,3-d]pyrimidin-4-yl)amino)cyclohexyl)(methyl)amino)-N-(pyridin-3-yl)acetamide], under setting [1], the IC50 is < 5 µM.
For the molecule `OCC(CO)Nc1ncnc2sc3c(c12)CCC3` [Compound I-145], the IC50 under setting [1] lay in the range of 20 to 50 µM.
Still for that read-out and setting: in the case of `CN(Cc1ccncc1Cl)[C@H]1CC[C@H](Nc2ncnc3sc4c(c23)CCC4)CC1` [Compound I-100, 1-N-[(3-chloropyridin-4-yl)methyl]-1-N-methyl-4-N-[7-thia-9,11-diazatricyclo[6.4.0.0^[2,6]]dodeca-1(8),2(6),9,11-tetraen-12-yl]cyclohexane-1,4-diamine] it was < 5 µM; in that of `C[C@@H]1CCc2sc3ncnc(N[C@H]4CC[C@H](N)CC4)c3c2C1` [Compound I-48, trans-N^1-((R)-6-methyl-5,6,7,8-tetrahydrobenzo[4,5]thieno[2,3-d]pyrimidin-4-yl)cyclohexane-1,4-diamine], < 5 µM.
With `CC1CCc2sc3ncnc(N[C@H]4CC[C@H](N(C)C)CC4)c3c2C1` (stereo partly drawn) [Compound I-54, trans-N^1,N^1-dimethyl-N^4-(6-methyl-5,6,7,8-tetrahydrobenzo[4,5]thieno[2,3-d]pyrimidin-4-yl)cyclohexane-1,4-diamine], under setting [1], the IC50 was < 5 µM.
Take `O=C(CN(CC(=O)N1CCCC1)[C@H]1CC[C@H](Oc2ncnc3sc4c(c23)CCC4)CC1)N1CCCC1` [Compound I-137, trans-2-[[2-oxo-2-(pyrrolidin-1-yl)ethyl](4-[7-thia-9,11-diazatricyclo[6.4.0.0[2,6]]dodeca-1(8),2(6),9,11-tetraen-12-yloxy]cyclohexyl)amino]-1-(pyrrolidin-1-yl)ethan-1-one]: the IC50 under setting [1] was in the range of 5 to 20 µM.
For the molecule `O=C(O)CN[C@H]1CC[C@H](Oc2ncnc3sc4c(c23)CCC4)CC1` [Compound I-68, 2-((trans-4-((6,7-dihydro-5H-cyclopenta[4,5]thieno[2,3-d]pyrimidin-4-yl)oxy)cyclohexyl)amino)acetic acid], the IC50 under setting [1] lay within 5 to 20 µM.
With `CN(CCC(N)=O)[C@H]1CC[C@H](Nc2ncnc3sc4c(c23)CCC4)CC1` [Compound I-109, 3-[methyl[4-([7-thia-9,11-diazatricyclo[6.4.0.0^[2,6]]dodeca-1(8),2(6),9,11-tetraen-12-yl]amino)cyclohexyl]amino]propanamide], the IC50 under setting [1] was < 5 µM.
In the case of `CN(CCc1ccccc1)[C@H]1CC[C@H](Nc2ncnc3sc4c(c23)CCC4)CC1` [Compound I-168, 1-N-methyl-1-N-(2-phenylethyl)-4-N-[7-thia-9,11-diazatricyclo[6.4.0.0^[2,6]]dodeca-1(8),2(6),9,11-tetraen-12-yl]cyclohexane-1,4-diamine], the IC50 under setting [1] was < 5 µM.

The IC50 is the midpoint of a concentration-inhibition curve.
